# Measured values reported in the supplement of paper PMC10307832.
# Legend:
# Assay in all cases: relative viability (nuclei count vs DMSO), 5 days (fraction); higher = more cells survive
# 201T = tested on: 201T
# Procedure, shortened: (§1)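 Lung cancer cell lines in 1536-well plates were dosed by pin tool the day after seeding, either with one drug alone or with a fixed anchor-drug dose plus five library-drug doses (not always all listed) in √10 steps. After 5 days, cells were fixed and their nuclei stained in one step (final 0.05% Triton X-100, 1% formaldehyde, 1 ug/ml Hoechst), then counted on 4× images. Relative viability is the nuclei count in treated wells divided by that in vehicle wells. Values are medians of duplicate plates.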
# NCI-H23 = tested on: NCI-H23
# Procedure, shortened: as §1
# NCI-H647 = tested on: NCI-H647
# Procedure, shortened: as §1
# NCI-H1651 = tested on: NCI-H1651
# Procedure, shortened: as §1
# LCLC-103H = tested on: LCLC-103H
# Procedure, shortened: as §1
# LK-2 = tested on: LK-2
# Procedure, shortened: as §1
# RERF-LC-KJ = tested on: RERF-LC-KJ
# Procedure, shortened: as §1
# HARA = tested on: HARA
# Procedure, shortened: as §1
# NCI-H2347 = tested on: NCI-H2347
# Procedure, shortened: as §1
# PC-3 [JPC-3] = tested on: PC-3 [JPC-3]
# Procedure, shortened: as §1
# NCI-H2405 = tested on: NCI-H2405
# Procedure, shortened: as §1
# NCI-H838 = tested on: NCI-H838
# Procedure, shortened: as §1
# LCLC-97TM1 = tested on: LCLC-97TM1
# Procedure, shortened: as §1
# HCC-78 = tested on: HCC-78
# Procedure, shortened: as §1
# A-427 = tested on: A-427
# Procedure, shortened: as §1
# NCI-H1793 = tested on: NCI-H1793
# Procedure, shortened: as §1
# NCI-H522 = tested on: NCI-H522
# Procedure, shortened: as §1
# LXF-289 = tested on: LXF-289
# Procedure, shortened: as §1
# LOU-NH91 = tested on: LOU-NH91
# Procedure, shortened: as §1
compound,measurement,setting,value
Cc1csc(=NC2CCCCC2)n1/N=C/c1ccc(O)c(O)c1O [MIM1] + NC(=O)Nc1cc(-c2cccc(F)c2)sc1C(=O)N[C@H]1CCCNC1 [AZD7762] (partner 0.2 µM),relative viability,201T; first compound 0.2 µM,0.62
same,relative viability,201T; first compound 0.6325 µM,0.691
same,relative viability,201T; first compound 2 µM,0.588
same,relative viability,201T; first compound 6.325 µM,0.453
same,relative viability,201T; first compound 20 µM,0.305
same,relative viability,NCI-H23; first compound 0.2 µM,0.277
same,relative viability,NCI-H23; first compound 0.6325 µM,0.213
same,relative viability,NCI-H23; first compound 2 µM,0.192
same,relative viability,NCI-H23; first compound 6.325 µM,0.263
same,relative viability,NCI-H23; first compound 20 µM,0.139
same,relative viability,NCI-H647; first compound 0.2 µM,0.502
same,relative viability,NCI-H647; first compound 0.6325 µM,0.379
same,relative viability,NCI-H647; first compound 6.325 µM,0.409
same,relative viability,NCI-H647; first compound 20 µM,0.073
same,relative viability,NCI-H1651; first compound 0.2 µM,0.464
same,relative viability,NCI-H1651; first compound 0.6325 µM,0.434
same,relative viability,NCI-H1651; first compound 2 µM,0.425
same,relative viability,NCI-H1651; first compound 6.325 µM,0.429
same,relative viability,NCI-H1651; first compound 20 µM,0.503
same,relative viability,LCLC-103H; first compound 0.2 µM,0.691
same,relative viability,LCLC-103H; first compound 0.6325 µM,0.79
same,relative viability,LCLC-103H; first compound 2 µM,0.759
same,relative viability,LCLC-103H; first compound 6.325 µM,0.698
same,relative viability,LCLC-103H; first compound 20 µM,0.399
same,relative viability,LK-2; first compound 0.2 µM,0.423
same,relative viability,LK-2; first compound 0.6325 µM,0.287
same,relative viability,LK-2; first compound 2 µM,0.333
same,relative viability,LK-2; first compound 6.325 µM,0.324
same,relative viability,LK-2; first compound 20 µM,0.25
same,relative viability,RERF-LC-KJ; first compound 0.2 µM,0.957
same,relative viability,RERF-LC-KJ; first compound 0.6325 µM,0.917
same,relative viability,RERF-LC-KJ; first compound 2 µM,0.818
same,relative viability,RERF-LC-KJ; first compound 6.325 µM,0.687
same,relative viability,RERF-LC-KJ; first compound 20 µM,0.17
same,relative viability,HARA; first compound 0.2 µM,0.345
same,relative viability,HARA; first compound 0.6325 µM,0.412
same,relative viability,HARA; first compound 2 µM,0.189
same,relative viability,HARA; first compound 6.325 µM,0.219
same,relative viability,HARA; first compound 20 µM,0.148
same,relative viability,NCI-H2347; first compound 0.2 µM,0.689
same,relative viability,NCI-H2347; first compound 0.6325 µM,0.779
same,relative viability,NCI-H2347; first compound 2 µM,0.797
same,relative viability,NCI-H2347; first compound 6.325 µM,0.623
same,relative viability,NCI-H2347; first compound 20 µM,0.57
same,relative viability,PC-3 [JPC-3]; first compound 0.2 µM,0.899
same,relative viability,PC-3 [JPC-3]; first compound 0.6325 µM,0.801
same,relative viability,PC-3 [JPC-3]; first compound 2 µM,0.719
same,relative viability,PC-3 [JPC-3]; first compound 6.325 µM,0.724
same,relative viability,PC-3 [JPC-3]; first compound 20 µM,0.751
same,relative viability,NCI-H2405; first compound 0.2 µM,0.835
same,relative viability,NCI-H2405; first compound 0.6325 µM,0.806
same,relative viability,NCI-H2405; first compound 2 µM,0.772
same,relative viability,NCI-H2405; first compound 6.325 µM,0.667
same,relative viability,NCI-H2405; first compound 20 µM,0.849
same,relative viability,NCI-H838; first compound 0.2 µM,0.868
same,relative viability,NCI-H838; first compound 0.6325 µM,0.947
same,relative viability,NCI-H838; first compound 2 µM,0.751
same,relative viability,NCI-H838; first compound 6.325 µM,0.84
same,relative viability,NCI-H838; first compound 20 µM,0.691
same,relative viability,LCLC-97TM1; first compound 0.2 µM,0.231
same,relative viability,LCLC-97TM1; first compound 0.6325 µM,0.243
same,relative viability,LCLC-97TM1; first compound 2 µM,0.196
same,relative viability,LCLC-97TM1; first compound 6.325 µM,0.145
same,relative viability,LCLC-97TM1; first compound 20 µM,0.0668
same,relative viability,HCC-78; first compound 0.2 µM,0.548
same,relative viability,HCC-78; first compound 2 µM,0.611
same,relative viability,HCC-78; first compound 6.325 µM,0.507
same,relative viability,HCC-78; first compound 20 µM,0.662
same,relative viability,A-427; first compound 0.2 µM,0.706
same,relative viability,A-427; first compound 0.6325 µM,0.7
same,relative viability,A-427; first compound 2 µM,0.651
same,relative viability,A-427; first compound 6.325 µM,0.525
same,relative viability,A-427; first compound 20 µM,0.395
same,relative viability,NCI-H1793; first compound 0.2 µM,0.614
same,relative viability,NCI-H1793; first compound 2 µM,0.412
same,relative viability,NCI-H1793; first compound 6.325 µM,0.424
same,relative viability,NCI-H1793; first compound 20 µM,0.271
same,relative viability,NCI-H522; first compound 0.2 µM,0.891
same,relative viability,NCI-H522; first compound 0.6325 µM,0.957
same,relative viability,NCI-H522; first compound 2 µM,0.824
same,relative viability,NCI-H522; first compound 6.325 µM,0.78
same,relative viability,NCI-H522; first compound 20 µM,0.511
same,relative viability,LXF-289; first compound 0.2 µM,1.07
same,relative viability,LXF-289; first compound 0.6325 µM,0.905
same,relative viability,LXF-289; first compound 2 µM,1.12
same,relative viability,LXF-289; first compound 6.325 µM,0.85
same,relative viability,LXF-289; first compound 20 µM,0.378
same,relative viability,LOU-NH91; first compound 0.2 µM,0.731
same,relative viability,LOU-NH91; first compound 0.6325 µM,0.779
same,relative viability,LOU-NH91; first compound 2 µM,0.677
same,relative viability,LOU-NH91; first compound 6.325 µM,0.637
same,relative viability,LOU-NH91; first compound 20 µM,0.279
